Laboratory results reported in PMC3914206.

Assays:
Format in all cases: binding
Design in all cases: KINOMEscan: ABL1(F317L)-phosphorylated / KINOMEscan: ABL1(H396P)-nonphosphorylated / KINOMEscan: ABL1(H396P)-phosphorylated / KINOMEscan: ABL1(M351T)-phosphorylated / KINOMEscan: ABL1(T315I)-phosphorylated / KINOMEscan: ABL1-nonphosphorylated / KINOMEscan: ABL1-phosphorylated / KINOMEscan: ACVR2A / KINOMEscan: ACVR2B / KINOMEscan: ADCK3 / KINOMEscan: ADCK4 / KINOMEscan: AKT1 / KINOMEscan: AKT3 / KINOMEscan: ALK / KINOMEscan: ARK5 / KINOMEscan: AURKA / KINOMEscan: AURKC / KINOMEscan: BIKE / KINOMEscan: BMPR1A / KINOMEscan: BMPR1B / KINOMEscan: BMX / KINOMEscan: BRK / KINOMEscan: BRSK1 / KINOMEscan: BRSK2 / KINOMEscan: CAMK1 / KINOMEscan: CAMK1D / KINOMEscan: CAMK1G / KINOMEscan: CAMK2A / KINOMEscan: CAMK2B / KINOMEscan: AAK1 / KINOMEscan: CAMK2D / KINOMEscan: CAMK2G / KINOMEscan: ABL1(F317I)-nonphosphorylated / KINOMEscan: ABL1(F317I)-phosphorylated / KINOMEscan: ABL1(F317L)-nonphosphorylated: unit: % Ctrl
Conditions in all cases: Compound Concentration 10 µM
panel of 442 kinases [1] = target: T1, panel of 442 kinases (Homo sapiens, UniProt P10721, A829P)
T1 construct: purchased KINOMEscan
T1 sequence (P10721 26-976 A829P): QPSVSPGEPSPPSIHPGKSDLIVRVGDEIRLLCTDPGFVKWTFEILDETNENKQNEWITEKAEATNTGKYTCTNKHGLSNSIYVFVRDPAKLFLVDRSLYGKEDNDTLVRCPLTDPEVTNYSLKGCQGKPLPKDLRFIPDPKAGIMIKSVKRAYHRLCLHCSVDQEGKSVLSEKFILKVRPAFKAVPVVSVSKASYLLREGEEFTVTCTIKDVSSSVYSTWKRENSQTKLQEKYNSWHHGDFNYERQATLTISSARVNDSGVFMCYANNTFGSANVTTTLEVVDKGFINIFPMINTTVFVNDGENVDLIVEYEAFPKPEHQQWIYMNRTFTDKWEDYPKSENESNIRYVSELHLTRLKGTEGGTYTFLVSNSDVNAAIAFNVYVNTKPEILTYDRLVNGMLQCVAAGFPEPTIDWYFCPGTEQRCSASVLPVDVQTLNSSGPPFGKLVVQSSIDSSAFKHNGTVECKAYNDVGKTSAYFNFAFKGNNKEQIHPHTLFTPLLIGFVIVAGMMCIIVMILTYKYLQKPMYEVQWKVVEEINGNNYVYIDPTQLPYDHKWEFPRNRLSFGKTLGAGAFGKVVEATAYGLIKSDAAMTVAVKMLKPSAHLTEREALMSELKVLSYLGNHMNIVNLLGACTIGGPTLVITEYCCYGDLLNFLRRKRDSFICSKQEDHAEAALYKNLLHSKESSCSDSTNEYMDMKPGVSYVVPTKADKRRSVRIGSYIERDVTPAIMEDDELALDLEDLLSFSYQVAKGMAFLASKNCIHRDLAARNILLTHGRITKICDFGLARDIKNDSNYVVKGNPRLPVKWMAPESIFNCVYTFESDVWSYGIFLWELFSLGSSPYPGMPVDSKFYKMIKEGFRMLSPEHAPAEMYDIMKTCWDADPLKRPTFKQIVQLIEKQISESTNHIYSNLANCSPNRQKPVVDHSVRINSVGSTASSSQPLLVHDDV
Description: (§1) We assessed the selectivity of members of this scaffold using the KINOMEscan methodology across a near comprehensive panel of 442 kinases [[18,27]].

panel of 442 kinases [2] = target: T2, panel of 442 kinases (Homo sapiens, UniProt Q8N568)
T2 construct: purchased KINOMEscan
T2 sequence (Q8N568 whole entry): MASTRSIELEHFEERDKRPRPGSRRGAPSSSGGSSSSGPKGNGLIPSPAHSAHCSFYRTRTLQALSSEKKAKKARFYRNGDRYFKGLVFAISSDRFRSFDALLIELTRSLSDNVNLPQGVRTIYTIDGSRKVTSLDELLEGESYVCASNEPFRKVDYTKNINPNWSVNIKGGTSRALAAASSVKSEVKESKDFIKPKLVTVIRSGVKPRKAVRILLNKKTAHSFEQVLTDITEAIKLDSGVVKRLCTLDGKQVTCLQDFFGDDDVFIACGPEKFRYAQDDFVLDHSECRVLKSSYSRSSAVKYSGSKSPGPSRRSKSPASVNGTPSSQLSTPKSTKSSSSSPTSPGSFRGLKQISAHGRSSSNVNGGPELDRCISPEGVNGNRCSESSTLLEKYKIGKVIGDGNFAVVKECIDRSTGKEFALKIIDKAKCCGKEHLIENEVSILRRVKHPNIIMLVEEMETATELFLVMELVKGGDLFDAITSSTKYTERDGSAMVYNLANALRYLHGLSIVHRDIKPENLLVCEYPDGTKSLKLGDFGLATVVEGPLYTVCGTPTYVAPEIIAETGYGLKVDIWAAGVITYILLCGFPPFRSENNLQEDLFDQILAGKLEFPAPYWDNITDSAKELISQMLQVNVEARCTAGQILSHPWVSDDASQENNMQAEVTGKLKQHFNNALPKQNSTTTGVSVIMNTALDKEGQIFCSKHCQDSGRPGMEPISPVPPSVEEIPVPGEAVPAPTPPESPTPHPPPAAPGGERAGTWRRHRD
Description: as §1

panel of 442 kinases [3] = target: T3, panel of 442 kinases (Homo sapiens, UniProt Q96D53)
T3 construct: purchased KINOMEscan
T3 sequence (Q96D53 1-544): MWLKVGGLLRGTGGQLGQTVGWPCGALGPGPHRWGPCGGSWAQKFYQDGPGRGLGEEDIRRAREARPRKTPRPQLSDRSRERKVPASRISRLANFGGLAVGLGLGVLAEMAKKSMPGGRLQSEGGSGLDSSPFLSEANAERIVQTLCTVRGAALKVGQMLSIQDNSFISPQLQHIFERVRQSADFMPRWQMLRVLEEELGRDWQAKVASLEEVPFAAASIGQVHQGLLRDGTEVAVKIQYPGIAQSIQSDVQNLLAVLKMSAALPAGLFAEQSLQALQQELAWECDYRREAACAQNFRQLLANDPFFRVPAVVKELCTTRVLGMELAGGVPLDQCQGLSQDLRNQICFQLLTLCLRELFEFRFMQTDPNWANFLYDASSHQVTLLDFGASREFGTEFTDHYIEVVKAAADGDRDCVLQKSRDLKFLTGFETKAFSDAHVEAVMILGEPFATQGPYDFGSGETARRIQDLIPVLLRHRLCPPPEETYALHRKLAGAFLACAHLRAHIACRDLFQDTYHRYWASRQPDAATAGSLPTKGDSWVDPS
Description: as §1

SMILES | KINOMEscan: KIT(A829P) (panel of 442 kinases [1]) | KINOMEscan: DCAMKL2 (panel of 442 kinases [2]) | KINOMEscan: ADCK4 (panel of 442 kinases [3])
CCOc1cc(C(=O)N2CCC(N3CCN(C)CC3)CC2)ccc1Nc1ncc2c(n1)N(C1CCCC1)c1ccccc1C(=O)N2C [Compound 26] | 74 | 3.6 | 100
COc1cc(C(=O)N2CCC(N3CCN(C)CC3)CC2)ccc1Nc1ncc2c(n1)N1CCc3cccc(c31)C(=O)N2C [Compound 24] | – | 1.2 | 81
COc1cc(C(=O)N2CCC(N3CCN(C)CC3)CC2)ccc1Nc1ncc2c(n1)N(C)c1ccccc1C(=O)N2C [15 (LRRK2-IN-1)] | 100 | 0.45 | 94
COc1cc(C(=O)N2CCC(N3CCN(C)CC3)CC2)ccc1Nc1ncc2c(n1)N(C1CCCC1)c1ccccc1C(=O)N2C [Compound 25, 11-cyclopentyl-2-((2-methoxy-4-(4-(4-methylpiperazin-1-yl)piperidine-1-carbonyl)phenyl)amino)-5-methyl-5H-benzo[e]pyrimido[5,4-b][1,4]diazepin-6(11H)-one] | 95 | 1.1 | 92
